Results on 7 compounds are retold here after PMC5770468, “Cardiac glycoside/aglycones inhibit HIV-1 gene expression by a mechanism requiring MEK1/2-ERK1/2 signaling” (Scientific Reports, 2018).

Where two headings read alike, the source gives them in different places.

One experiment concerns HeLa rtTA-HIV-ΔMls cells. Briefly: In vitro therapeutic index (CC20/IC50) in HeLa rtTA-HIV-ΔMls cells. The class given is cell-based, human. The source says:
Without median toxic dose (TD50) and half-maximal effective concentration (EC50) data available to calculate TIs (in vivo) from HIV patients treated with CSs, we determined the following TIs for each cell type treated with a CS (summarized in Supplementary Table S1): in vitro TIs from HeLa rtTA-HIV-ΔMls cells using CC20/IC50 (instead of CC50/IC50), in vitro TIs from 24ST1NLESG cells using CC50/IC50, and ex vivo TIs from HIV-infected PBMCs using CC50/IC50 (at day 14 of culture approximated from available cell viability trends for CC50s of Supplementary Fig. S13 and inferred near maximal IC50s).
Supplementary Table S1. Comparison of the in vitro (IVTI) and ex vivo therapeutic indices (EVTIs) of CSs and their impact on the expression of essential HIV-1 proteins.
Notes: data for CC20, CC50, and IC50s for each drug/compound were estimated from dose response curves in Figures 1-2, Supplementary Table S1, Supplementary Figures S2, S5, and S13, and Wong et al.
">" means the estimate has not been accurately determined but is greater than the highest concentration […]
"( )" indicates preliminary data that was not shown. aCC20 instead of CC50 was estimated from dose response curves and used for calculation of IVTIs. bCells were treated at ~IC90of a CS.
(1 picture or pasted object on this page, not shown here)

Experiment [1] deals with HIV-1 (Gag) gene expression. Briefly: HIV-1 (Gag) gene expression in HeLa rtTA-HIV-ΔMls cells, p24CA ELISA dose response. The class given is cell-based, HIV-1 (LAI). As to conditions: for IC50: read-out: IC50 (nM) HeLa rtTA-HIV-ΔMls. The protocol:
Drug/compounds were tested for effects on HIV-1 gene expression using inducible Tet-ON HIV-1 cell lines [HeLa rtTA-HIV-ΔMls or rtTA-HIV(Gag-GFP)] containing a HIV-1 (LAI) provirus activatable by Dox or tetracycline transactivator (tTA)[69]. The rtTA-HIV-ΔMls provirus was modified and used as previously reported[9]–[11],[70]. The rtTA-HIV(Gag-GFP) provirus was generated by deletion of the PR and RT coding regions within pol and insertion of GFP to the 3′ of gag, creating GFP fused to the C-terminal of Gag. After 4 h of drug/compound treatment, HIV-1 gene expression was activated with Dox (2 μg/mL) or tTA (described below). Equal concentrations of DMSO were present in each experiment. After ~20 h, cells and media were harvested to monitor the effects of drug/compound treatments as described below. HIV-1 gene expression was quantified via p24^CA ELISA or monitoring Gag-GFP fluorescence in cells as described below. In parallel, cell viability of treatments were assessed by XTT assay (Sigma-Aldrich, #TOX2).
Drug/compounds were purchased from Sigma (Digoxin, #D6003; Digitoxin, #D5878; Digoxigenin, #D9026; Digitoxigenin, #D9404; Ouabain, #O3125; Bufalin, #S961175; Cinobufagin, #C1272; and Anisomycin, #A9789) and derivatives of convallatoxin were synthesized from C. Lingwood’s lab of the Hospital for Sick Children (convallatoxin, peruvoside, RIDK-34, -36, -20, -21, -27, and -28). […] Recombinant human EGF was from Invitrogen (#PHG0314). Chemical structures were drawn in ChemSketch (ACD/Labs).
To monitor HIV-1 gene expression or replication, Gag release into cell culture supernatants were assayed by ELISA using a p24^CA antigen capture assay kit (AIDS & Cancer Virus Program, NCI-Frederick, Frederick, MD USA). Media harvested from HIV clinical isolates were diluted ~10 fold (or as necessary) prior to performing this assay. For analysis of HIV-1 and SR protein expression (and phosphorylation states with calf intestinal alkaline phosphatase treatments), cells were lysed and analyzed by western blot as previously outlined. Phosphatase inhibitors (e.g. 10 mM sodium fluoride, 2 mM sodium orthovanadate) were added to solutions requiring phospho protein analyses. An anti-chicken NKA antibody (α6F, #a6F–c, Developmental Studies Hybridoma Bank, The University of Iowa, contributed by Douglas M. Fambrough, The Johns Hopkins University) was used as specified to detect NKA α1- and β1-subunits across species. […] Activation of MAPKs was determined by western blot quantitation and calculation of phospho/total protein levels. […] Images were exported as TIF files for assembly, rotation, and equal brightness/contrast adjustments in ImageJ or Microsoft Powerpoint. Some lanes were cropped and rearranged from the same blot/gel as indicated. In representative gel/blot sets, samples were electrophoresed from the same experiment as controls, resolved simultaneously on identically cast gel(s), transferred to same PVDF (by either wet electrophoretic or by Bio-Rad Trans-Blot® Turbo Transfer System), and detected at same time. Marked locations of molecular weight (MW) standards are shown on the left as a reference. […] SUnSET analysis of total cellular protein synthesis. HeLa rtTA-HIV-ΔMls cells were cultured in the presence/absence of compound and pathway inhibitor (if any) and Dox induced for ~24 h as already described, then treated with puromycin (10 μg/mL, Sigma-Aldrich, #P8833) for 30 min to label nascent proteins prior to harvest. As control, 10 µM of cycloheximide (Sigma-Aldrich, #C4849) was added to some cells prior to puromycin treatment. Cells were subsequently washed, whole cell lysates prepared, and proteins quantified by western blot using an anti-puromycin antibody (EMD Millipore, #anti-12D10) as described above. Transfection of plasmid DNA into cells.
For orientation: In an ELISA, binding on a coated surface is turned into a signal by an enzyme label.

The next experiment concerns HIV-1 Gag-GFP expression. Briefly: Recovery of HIV-1 Gag-GFP expression by pathway inhibitors in the presence of CSs, HeLa rtTA-HIV(Gag-GFP) cells. The class given is cell-based. Conditions: 12 μM U0126; 5.5 μM Selumetinib; 10 μM LY294002; 5 µM KB-R7943; CSs at ~IC80. The protocol:
Figure 5 Effect of modulating NKA expression, [Ca^2+]i, and PI3K-AKT on HIV-1 gene expression. Depletion of the NKA perturbs HIV-1 RNA processing (n ≥ 3, mean, s.e.m.). HeLa rtTA-HIV(Gag-GFP) cells were transduced with two shRNAs (E6/E10) to knockdown expression of the NKA α1 subunit and their effect on HIV-1 gene expression analyzed. After positive selection of cells with puromycin for 24–48 h, HIV-1 expression was Dox induced for 20 h, and cells harvested for analyses. Total mRNA (and protein) was isolated from cells, reverse transcribed, and analyzed by qRT-PCR and data normalized to β-actin (a,c). Results are shown relative to Stuffer (+). (a) Expression levels of NKA α1 mRNAs assayed by qRT-PCR. (b) HIV-1 Gag expression assayed by p24^CA ELISA of cell lysates (40 μg). (c) Accumulation of HIV-1 US (black), SS (white), and MS (gray) mRNAs quantified by qRT-PCR. (d–g) CSs suppress HIV-1 gene expression independent of intracellular Ca^2+ flux/signaling and PI3K-AKT activation. HeLa rtTA-HIV(Gag-GFP) cells were pre-treated with either a chelator of [Ca^2+]i (5 µM BAPTA-AM, [Ca2+]ii), inhibitors of NCX Ca^2+-entry (5 µM KB-R7943, NCXi) or PI3K (10 μM LY294002, PI3Ki), or untreated (DMSO, no pathway inhibitor) for ~2 h prior to treatment with ~IC80s of CSs or DMSO for 4 h, and Dox induced for ~20 h. The pathway used by a CS to inhibit HIV-1 expression was determined by monitoring for recovery of Gag-GFP expression by measuring GFP fluorescence in cell lysates (and initially by plate scans of live/fixed cells, Supplementary Fig. S7a and S8c). (d) Levels of [Ca^2+]i measured by Fura Red AM™ (n ≥ 4, mean, s.e.m.). (e–f) Quantification of Gag-GFP expression by reducing SDS-PAGE in lysates (35 μg) of cells which were pre-treated with/without KB-R7943 (n ≥ 3–4 mean, s.e.m.). […] (g) Graph quantitating Gag expression by p24^CA ELISA in lysates of cells (35 μg) that were pre-treated with/without LY294002 (n ≥ 3, mean, s.e.m.). Statistical comparisons in (a–g) were performed as illustrated (black/gray dashed lines) or described in Methods.
Figure 6 CSs control HIV-1 gene expression through intracellular signaling. HeLa rtTA-HIV(Gag-GFP) cells were pre-treated with/without pathway inhibitor overnight (~15 h) and treated with ~IC80s of CSs. […] Graphs quantifying the activation level (phospho/total protein) of each MAP/MAPK by western blot. […] The signaling pathway(s) used by a CS to inhibit HIV-1 expression was determined by detecting Gag-GFP fluorescence in cell lysates (~35 μg) by reducing SDS-PAGE after pre-treatment of cells with a MEK1/2 (12 μM U0126, white), p38α/β/β2 (15 μM SB203580/p38i, gray), or JNK1/2/3 (1.25 μM SP600125/JNKi, hatched) inhibitor (n ≥ 5–7, 4–8, and 3–7, resp., mean, s.e.m.). […]

Where [2] appears, read: Human immunodeficiency virus 1, HeLa.
Where [3] appears, read: Human immunodeficiency virus 1, HeLa, read-out: IC90, HIV-1 (Gag) gene expression.

For `CC(=O)O[C@H]1[C@H]2O[C@]23[C@@H]2CC[C@@H]4C[C@@H](O)CC[C@]4(C)[C@H]2CC[C@]3(C)[C@H]1c1ccc(=O)oc1` [Cinobufagin], in the experiment with HeLa rtTA-HIV-ΔMls cells, the “better in vitro TI than digoxin” value was found to be 2.3 fold. Also, the IC50 in experiment [1] (setting [2]) stood at 24 nM. Also, the IC90 was 40 nM in experiment [1] (setting [3]) and roughly 40 nM in experiment [1] (Human immunodeficiency virus 1, HeLa, read-out: ~IC90 (approximate concentration used in experiments)). In addition, in experiment [1] (Human immunodeficiency virus 1, HeLa, read-out: ~IC80 (approximate concentration used in experiments)), the IC80 was roughly 40 nM. For the same compound, in experiment [1] (cell based assays (HeLa rtTA-HIV-ΔMls)), the “better anti-HIV-1 activity than digoxin” value was found to be 1.9 fold.
As to `C[C@@H]1O[C@@H](O[C@H]2CC[C@]3(C=O)[C@H]4CC[C@]5(C)[C@@H](C6=CC(=O)OC6)CC[C@]5(O)[C@@H]4CC[C@]3(O)C2)[C@H](O)[C@H](O)[C@H]1O` [Convallatoxin], the “better in vitro TI than digoxin” value in the experiment with HeLa rtTA-HIV-ΔMls cells amounted to 6.8 fold. Also, the “better anti-HIV-1 activity than digoxin” value in experiment [1] is listed as 3.8 fold. Also, the IC50 in experiment [1] (Human immunodeficiency virus 1, HeLa, HIV-1 Gag expression, p24CA ELISA, 4 h drug then Dox ~20 h) was determined as 12 nM. The IC90 in experiment [1] (Human immunodeficiency virus 1, HeLa rtTA-HIV-ΔMls cells, read-out: IC90, HIV-1 (Gag) gene expression) came to 24 nM.
Turning to `O=c1cc(N2CCOCC2)oc2c(-c3ccccc3)cccc12` [LY294002], the “reversal of CS inhibition of HIV-1 Gag-GFP expression by pathway inhibitor pre-treatment” value (shortened to “reversal … by pathway inhibitor pre-treatment”) with HIV-1 Gag-GFP expression was “did not reverse”.
As for `CO[C@H]1[C@H](O)[C@H](O[C@H]2CC[C@@]3(C=O)[C@H](CC[C@@H]4[C@@H]3CC[C@]3(C)[C@@H](C5=CC(=O)OC5)CC[C@]43O)C2)O[C@@H](C)[C@@H]1O` [Peruvoside], the “reduced potency relative to convallatoxin” value in experiment [1] (HeLa rtTA-HIV-ΔMls cells) is 10 fold. Moreover, in experiment [1] (setting [2]), the IC50 came out at 80 nM. Also, the IC90 in experiment [1] (setting [3]) was determined as 250 nM.
For the compound `CC1OC(OC2CC(O)C3(CO)C4C(O)CC5(C)C(C(=CC(=O)O)CO)CCC5(O)C4CCC3(O)C2)C(O)C(O)C1O` (stereo not drawn) [RIDK-21], the “anti-HIV-1 activity” value in experiment [1] (HeLa rtTA-HIV-ΔMls cells) is reported as “reduced/no anti-HIV-1 activity”. Besides, the IC50 in experiment [1] (HIV-1 Gag expression, p24CA ELISA, 4 h drug then Dox ~20 h) was greater than 100 nM.
With `Cn1cnc2c(F)c(Nc3ccc(Br)cc3Cl)c(C(=O)NOCCO)cc21` [Selumetinib], in the experiment with HIV-1 Gag-GFP expression, the “reversal … by pathway inhibitor pre-treatment” value is “partially rescuing”.
On to `N#CC(=C(/N)Sc1ccccc1N)/C(C#N)=C(/N)Sc1ccccc1N` [U0126], for which, in the experiment on HIV-1 Gag-GFP expression, the “reversal … by pathway inhibitor pre-treatment” value is “partially restored”.

By IC50 is commonly meant the point on the concentration scale where inhibition reaches its midpoint.
